Data taken from patent US20240269298A1, “PHOSPHONYL DERIVATIVE, AND COMPOSITION AND PHARMACEUTICAL APPLICATION THEREOF” (XIZANG HAISCO PHARMACEUTICAL CO., LTD., priority 2021, published 2024).
Where two headings read alike, the source gives them in different places.

Columns and labels:
[1] = test system: NCI-H1975 (EGFR-L858R-T790M) cells; test: Inhibitory activity on proliferation of NCI-H1975 (EGFR-L858R-T790M) cells (CTG, 72 h); assay type: cell-based; details: Homo sapiens
Summary of the method: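 Cells plated at 1000/well (NCI-H1975, RPMI1640+10% FBS) or 3000/well (A431, DMEM+10% FBS), dosed next day with compounds (0.1% DMSO final) for 72 h at 37 °C, 5% CO2. Viability by CTG luminescence, normalised to vehicle control; IC50 from nonlinear-regression dose-survival curves.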

[2] = test system: Ba/F3-TEL-EGFR-T790M-L858R-C797S cells; test: Inhibitory activity on proliferation of Ba/F3-TEL-EGFR-T790M-L858R-C797S cells (CellTiter-Glo, 72 h); assay type: cell-based
Procedure: Ba/F3-TEL-EGFR-T790M-L858R-C797S cells were cultured in an incubator at 37° C. with 5% CO2. The cells in the logarithmic phase were collected, counted and plated in a 96-well plate at a density of 2000 cells/well. The compounds at different concentrations were added, and a vehicle control group (cells plus DMSO) and a blank control group (cell culture mediums plus DMSO) were provided, wherein the concentration of DMSO was both 0.1%. The cell culture plate was cultured in an incubator at 37° C. with 5% CO2 for 72 hours. After the incubation was completed, the cell culture plate was removed and allowed to equilibrate to room temperature for 10 min. […] The plate was placed at room temperature for 10 min, and then […] signal values were measured using a microplate reader (SpectraMax Paradigm). […] The inhibition rates corresponding to different concentrations of compounds were calculated, and using the GraphPad Prism software, the inhibition rate curves were plotted, and IC50 values were calculated. wherein RLUDrug was the readout of the drug-treated group, RLUMax was the readout of the control group, and RLUMin was the readout of the blank group.

[3] = Pharmacokinetic test in mice; assay type: in vivo; details: male, ICR, mouse, po, administration i.g. (10 mg/kg), plasma
Summary of the method: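 Male ICR mice (20-25 g), fasted 12-14 h before dosing and fed 4 h after, received a single intravenous or intragastric dose. Orbital plasma sampled from 0 to 24 h (5 min-24 h points); LC-MS/MS quantitation for PK parameters and bioavailability.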

[4] = read-out: IC50 (value in brackets)

| IC50 ([1]; read-out: IC50 (class symbol)) [nM] | IC50 [1, 4] [nM] | IC50 [2] [nM] | AUC [3] [µg·h/mL] | half-life [3] [h] | SMILES |
| --- | --- | --- | --- | --- | --- |
| < 100 | 54 | 15.6 | 145 | 18 | COc1cc(N2CCC(CN3CCN(c4ccc5c(c4)C(=O)N(C4CCC(=O)NC4=O)C5=O)CC3)CC2)c(-c2cnn(C)c2)cc1Nc1ncc(Br)c(Nc2ccc(C3CC3)cc2P(C)(C)=O)n1 (stereo not shown) [Compound 106, 5-(4-((1-(4-((5-bromo-4-((4-cyclopropyl-2-(dimethylphosphoryl)phenyl)amino)pyrimidin-2-yl)amino)-5-methoxy-2-(1-methyl-1H-pyrazol-4-yl)phenyl)piperidin-4-yl)methyl)piperazin-1-yl)-2-(2,6-dioxopiperidin-3-yl)isoindoline-1,3-dione] |
| < 100 | 56 | 15.6 | 130 | 13.9 | COc1cc(N2CCC(CN3CCN(c4ccc5c(c4)C(=O)N(C4CCC(=O)NC4=O)C5=O)CC3)CC2)c(-c2cnn(C)c2)cc1Nc1ncc(Cl)c(Nc2ccc(C3CC3)cc2P(C)(C)=O)n1 (stereo not shown) [Compound 107, 5-(4-((1-(4-((5-chloro-4-((4-cyclopropyl-2-(dimethylphosphoryl)phenyl)amino)pyrimidin-2-yl)amino)-5-methoxy-2-(1-methyl-1H-pyrazol-4-yl)phenyl)piperidin-4-yl)methyl)piperazin-1-yl)-2-(2,6-dioxopiperidin-3-yl)isoindoline-1,3-dione] |
